Experimental data: patent US8044079B2, “Substituted oxindole derivatives, medicaments containing said derivatives and use thereof” (Abbott GmbH & Co. KG, priority 2005, dated 2011)

Each compound was assayed against T1, human vasopressin V1b receptor (Homo sapiens, UniProt P47901) (assay: Vasopressin V1b receptor binding test). Settings: membranes of CHO-K1 cells with human V1b receptor, displacement of 1.5 nM 3H-AVP; for compounds with more than one stereogenic center the diastereomer with greater affinity.
T1 construct: expressed in transfected cells; host or cells: CHO-K1 (cell line hV1b_3H2_CHO), membrane preparation
T1 sequence (P47901 1-424): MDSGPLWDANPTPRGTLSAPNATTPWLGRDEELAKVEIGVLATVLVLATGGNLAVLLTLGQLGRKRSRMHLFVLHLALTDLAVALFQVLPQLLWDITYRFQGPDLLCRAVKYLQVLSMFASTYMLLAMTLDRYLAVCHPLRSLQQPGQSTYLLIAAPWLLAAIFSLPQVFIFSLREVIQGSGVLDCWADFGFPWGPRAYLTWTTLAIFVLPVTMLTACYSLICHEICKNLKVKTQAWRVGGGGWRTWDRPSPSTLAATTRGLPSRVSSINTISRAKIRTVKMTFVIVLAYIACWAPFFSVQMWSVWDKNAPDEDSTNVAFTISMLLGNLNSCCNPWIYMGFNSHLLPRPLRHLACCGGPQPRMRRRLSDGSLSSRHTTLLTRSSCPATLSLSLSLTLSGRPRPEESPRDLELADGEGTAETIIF
Method: Vasopressin V1b Receptor Binding Test:
The test substances were dissolved at a concentration of 10^−2 M in DMSO, and were further diluted to 5×10^−4 M to 5×10^−9 M in DMSO. This DMSO predilution series was diluted 1:10 with test buffer. In the test assay the substance concentration was further diluted to 1:5 (2% DMSO in the assay).
The membrane pellet was homogenized again as described and centrifuged, and was then taken up in 50 mM tris-HCl at pH 7.4, homogenized, and frozen in aliquots at −190° C. and stored in liquid nitrogen.
The incubation buffer was 50 mM tris, 10 mM MgCl2, and 0.1% BSA at pH 7.4. […] The nonspecific binding was determined using 1 μM AVP (Bachem #H1780). All determinations were performed in triplicate. After incubation (60 minutes at room temperature), the free radioligand was filtered off by vacuum filtration (Skatron 7000 cell harvester) through Wathman GF/B fiberglass filter mats, and the filters were transferred to scintillation vessels. The liquid scintillation measurement was conducted in a Model 2000 or 2200CA TriCarb unit (Packard). The measured cpm was converted to dpm using a standard quench series.
The binding parameters were calculated by nonlinear regression in SAS.
The affinities of the compounds according to the invention for human vasopressin receptor V1b were measured according to the above test, and the affinity constants (Ki) were determined.

Structure (SMILES) | Ki
CCN(CC)Cc1ccc(C2(N3CCC[C@H]3c3ncco3)C(=O)N(S(=O)(=O)c3ccc(OC)cc3)c3ccc(Cl)cc32)c(OC)c1 (stereo partly drawn) [Example 19, 5-Chloro-3-(4-diethylaminomethyl-2-methoxyphenyl)-1-(4-methoxybenzenesulfonyl)-3-((S)-2-oxazol-2-yl-pyrrolidin-1-yl)-1,3-dihydroindol-2-one] | < 10 nM
COCCN(C)Cc1ccc(C2(N3CCC[C@H]3c3ncco3)C(=O)N(S(=O)(=O)c3ccc(OC)cc3)c3ccc(Cl)cc32)c(OC)c1 (stereo partly drawn) [Example 22, 5-Chloro-1-(4-methoxybenzenesulfonyl)-3-(2-methoxy-4-{[(2-methoxyethyl)methylamino]methyl}phenyl)-3-((S)-2-oxazol-2-yl-pyrrolidin-1-yl)-1,3-dihydroindol-2-one] | 10 to 100 nM
COc1ccc(S(=O)(=O)N2C(=O)C(c3cc(CN(C)C)ccc3OC)(N3CCC[C@H]3c3ncco3)c3ccc(Cl)cc32)cc1 (stereo partly drawn) [Example 28, 6-Chloro-3-(5-dimethylaminomethyl-2-methoxyphenyl)-1-(4-methoxybenzenesulfonyl)-3-((S)-2-oxazol-2-yl-pyrrolidin-1-yl)-1,3-dihydroindol-2-one] | 100 to 1000 nM
CCN(C)Cc1ccc(OC)c(C2(N3CCC[C@H]3c3ncco3)C(=O)N(S(=O)(=O)c3ccc(OC)cc3)c3cc(Cl)ccc32)c1 (stereo partly drawn) [Example 30, 6-Chloro-3-{5-[(ethylmethylamino)methyl]-2-methoxyphenyl}-1-(4-methoxybenzenesulfonyl)-3-((S)-2-oxazol-2-yl-pyrrolidin-1-yl)-1,3-dihydroindol-2-one] | 100 to 1000 nM
CCN(CC)Cc1ccc(OC)c(C2(N3CCC[C@H]3c3ncco3)C(=O)N(S(=O)(=O)c3ccc(OC)cc3)c3cc(Cl)ccc32)c1 (stereo partly drawn) [Example 31, 6-Chloro-3-(5-diethylaminomethyl-2-methoxyphenyl)-1-(4-methoxybenzenesulfonyl)-3-((S)-2-oxazol-2-yl-pyrrolidin-1-yl)-1,3-dihydroindol-2-one] | 100 to 1000 nM
COc1ccc(S(=O)(=O)N2C(=O)C(c3cc(CN4CCN(C)CC4)ccc3OC)(N3CCC[C@H]3c3ncco3)c3ccc(Cl)cc32)cc1 (stereo partly drawn) [Example 35, 6-Chloro-1-(4-methoxybenzenesulfonyl)-3-[2-methoxy-5-(4-methylpiperazin-1-ylmethyl)phenyl]-3-((S)-2-oxazol-2-yl-pyrrolidin-1-yl)-1,3-dihydroindol-2-one] | 100 to 1000 nM
COc1ccc(S(=O)(=O)N2C(=O)C(c3cc(CN4CCC4)ccc3OC)(N3CCC[C@H]3c3ncco3)c3ccc(Cl)cc32)cc1 (stereo partly drawn) [Example 38, 3-(5-Azetidin-1-ylmethyl-2-methoxyphenyl)-6-chloro-1-(4-methoxybenzenesulfonyl)-3-((S)-2-oxazol-2-yl-pyrrolidin-1-yl)-1,3-dihydroindol-2-one] | 100 to 1000 nM
COc1ccc(S(=O)(=O)N2C(=O)C(c3ccc(CN(C)C)cc3OC)(N3CCC[C@H]3c3ncco3)c3cc(C#N)ccc32)cc1 (stereo partly drawn) [Example 41, 5-Cyano-3-(4-dimethylaminomethyl-2-methoxyphenyl)-1-(4-methoxybenzenesulfonyl)-3-((S)-2-oxazol-2-yl-pyrrolidin-1-yl)-1,3-dihydroindol-2-one] | 10 to 100 nM
COc1ccc(S(=O)(=O)N2C(=O)C(c3ccc(CN4CCN(C)CC4)cc3OC)(N3CCC[C@H]3c3ncco3)c3cc(C#N)ccc32)cc1 (stereo partly drawn) [Example 42, 5-Cyano-1-(4-methoxybenzenesulfonyl)-3-[2-methoxy-4-(4-methylpiperazin-1-ylmethyl)phenyl]-3-((S)-2-oxazol-2-yl-pyrrolidin-1-yl)-1,3-dihydroindol-2-one] | 10 to 100 nM

More lines, now with the values ahead:

Ki | Structure (SMILES)
< 10 nM | CCCNCc1ccc(C2(N3CCC[C@H]3c3ncco3)C(=O)N(S(=O)(=O)c3ccc(OC)cc3)c3ccc(Cl)cc32)c(OC)c1 (stereo partly drawn) [Example 20, 5-Chloro-1-(4-methoxybenzenesulfonyl)-3-(2-methoxy-4-propylaminomethylphenyl)-3-((S)-2-oxazol-2-yl-pyrrolidin-1-yl)-1,3-dihydroindol-2-one]
< 10 nM | COc1ccc(S(=O)(=O)N2C(=O)C(c3ccc(CN(C)C(C)C)cc3OC)(N3CCC[C@H]3c3ncco3)c3cc(Cl)ccc32)cc1 (stereo partly drawn) [Example 21, 5-Chloro-3-{4-[(isopropylmethylamino)methyl]-2-methoxyphenyl}-1-(4-methoxybenzenesulfonyl)-3-((S)-2-oxazol-2-yl-pyrrolidin-1-yl)-1,3-dihydroindol-2-one]
< 10 nM | COc1ccc(S(=O)(=O)N2C(=O)C(c3ccc(CN4CCN(C)CC4)cc3OC)(N3CCC[C@H]3c3ncco3)c3cc(Cl)ccc32)cc1 (stereo partly drawn) [Example 23, 5-Chloro-1-(4-methoxybenzenesulfonyl)-3-[2-methoxy-4-(4-methylpiperazin-1-ylmethyl)phenyl]-3-((S)-2-oxazol-2-yl-pyrrolidin-1-yl)-1,3-dihydroindol-2-one]
< 10 nM | COc1ccc(S(=O)(=O)N2C(=O)C(c3ccc(CN4CCNCC4)cc3OC)(N3CCC[C@H]3c3ncco3)c3cc(Cl)ccc32)cc1 (stereo partly drawn) [Example 24, 5-Chloro-1-(4-methoxybenzenesulfonyl)-3-(2-methoxy-4-piperazin-1-ylmethylphenyl)-3-((S)-2-oxazol-2-yl-pyrrolidin-1-yl)-1,3-dihydroindol-2-one]
< 10 nM | COc1ccc(S(=O)(=O)N2C(=O)C(c3ccc(CN4CCCC4)cc3OC)(N3CCC[C@H]3c3ncco3)c3cc(Cl)ccc32)cc1 (stereo partly drawn) [Example 25, 5-Chloro-1-(4-methoxybenzenesulfonyl)-3-(2-methoxy-4-pyrrolidin-1-ylmethylphenyl)-3-((S)-2-oxazol-2-yl-pyrrolidin-1-yl)-1,3-dihydroindol-2-one]
< 10 nM | COc1ccc(S(=O)(=O)N2C(=O)C(c3ccc(CN4CCCCC4)cc3OC)(N3CCC[C@H]3c3ncco3)c3cc(Cl)ccc32)cc1 (stereo partly drawn) [Example 26, 5-Chloro-1-(4-methoxybenzenesulfonyl)-3-(2-methoxy-4-piperidin-1-ylmethylphenyl)-3-((S)-2-oxazol-2-yl-pyrrolidin-1-yl)-1,3-dihydroindol-2-one]
100 to 1000 nM | CCCNCc1ccc(OC)c(C2(N3CCC[C@H]3c3ncco3)C(=O)N(S(=O)(=O)c3ccc(OC)cc3)c3cc(Cl)ccc32)c1 (stereo partly drawn) [Example 32, 6-Chloro-1-(4-methoxybenzenesulfonyl)-3-(2-methoxy-5-propylaminomethylphenyl)-3-((S)-2-oxazol-2-yl-pyrrolidin-1-yl)-1,3-dihydroindol-2-one]
100 to 1000 nM | COc1ccc(S(=O)(=O)N2C(=O)C(c3cc(CN(C)C(C)C)ccc3OC)(N3CCC[C@H]3c3ncco3)c3ccc(Cl)cc32)cc1 (stereo partly drawn) [Example 33, 6-Chloro-3-{5-[(isopropylmethylamino)methyl]-2-methoxyphenyl}-1-(4-methoxybenzenesulfonyl)-3-((S)-2-oxazol-2-yl-pyrrolidin-1-yl)-1,3-dihydroindol-2-one]
100 to 1000 nM | COCCN(C)Cc1ccc(OC)c(C2(N3CCC[C@H]3c3ncco3)C(=O)N(S(=O)(=O)c3ccc(OC)cc3)c3cc(Cl)ccc32)c1 (stereo partly drawn) [Example 34, 6-Chloro-1-(4-methoxybenzenesulfonyl)-3-(2-methoxy-5-{[(2-methoxyethyl)methylamino]methyl}phenyl)-3-((S)-2-oxazol-2-yl-pyrrolidin-1-yl)-1,3-dihydroindol-2-one]
100 to 1000 nM | COc1ccc(S(=O)(=O)N2C(=O)C(c3cc(CN4CCOCC4)ccc3OC)(N3CCC[C@H]3c3ncco3)c3ccc(Cl)cc32)cc1 (stereo partly drawn) [Example 37, 6-Chloro-1-(4-methoxybenzenesulfonyl)-3-(2-methoxy-5-morpholin-4-ylmethylphenyl)-3-((S)-2-oxazol-2-yl-pyrrolidin-1-yl)-1,3-dihydroindol-2-one]
100 to 1000 nM | COc1ccc(S(=O)(=O)N2C(=O)C(c3cc(CN4CCCC4)ccc3OC)(N3CCC[C@H]3c3ncco3)c3ccc(Cl)cc32)cc1 (stereo partly drawn) [Example 39, 6-Chloro-1-(4-methoxybenzenesulfonyl)-3-(2-methoxy-5-pyrrolidin-1-ylmethylphenyl)-3-((S)-2-oxazol-2-yl-pyrrolidin-1-yl)-1,3-dihydroindol-2-one]
100 to 1000 nM | COc1ccc(S(=O)(=O)N2C(=O)C(c3cc(CN4CCCCC4)ccc3OC)(N3CCC[C@H]3c3ncco3)c3ccc(Cl)cc32)cc1 (stereo partly drawn) [Example 40, 6-Chloro-1-(4-methoxybenzenesulfonyl)-3-(2-methoxy-5-piperidin-1-ylmethylphenyl)-3-((S)-2-oxazol-2-yl-pyrrolidin-1-yl)-1,3-dihydroindol-2-one]
